# Test results: patent US20260138981A1, “DIHYDROFOLATE REDUCTASE INHIBITORS FOR ANTI-BIOTIC RESISTANT INFECTIONS” (THE TRUSTEES OF PRINCETON UNIVERSITY, priority 2022, published 2026)
# Tests used:
# [1] = tested on: P. aeruginosa PA14 nfxB T39P mutants; experiment: Cross resistance of fluorofolin-resistant mutant; assay type: cell-based; conditions: 2×MIC
# Description: NfxB is a transcriptional regulator protein that represses expression of the MexCD-OprN efflux pump.
# [2] = tested on: PA14 mutants with disruptions in mexA, mexB and oprM; experiment: MIC against MexAB-OprM transposon mutants; assay type: cell-based, P. aeruginosa; conditions: oprM transposon mutants vs wildtype PA14
# Experimental: FIG. 1I is the minimum inhibitory concentration of fluorofolin or trimethoprim against transposon mutants for each component of the MexAB-OprM efflux pump. MIC against wildtype PA14 was calculated to control for each drug stock. MIC values are representative of two independent replicates.
# P. aeruginosa PA14 transposon mutants were generated by the Ausubel Lab (http://ausubellab.mgh.harvard.edu/cgi-bin/pa14/home.cgi). The MICs of fluorofolin and TMP against strains with disrupted MexA, MexB, and OprM were determined as above and compared to the parental strain. As transposon mutants in MexB were represented twice in this collection, the MIC was confirmed across both mutant strains.
# [3] = tested on: folate metabolism in P. aeruginosa; experiment: Metabolomics (LC-MS metabolite abundance); assay type: cell-based; conditions: PA14, 2×MIC for 15 min, vs solvent control; P=0.0186 and 0.0196
# Experimental: Metabolite abundance was quantified in comparison to the solvent only control. Data represents mean±SD for 3 biological replicates. P values were calculated using unpaired t-test using Prism 9 (P values≤0.05)
# To test the ability of fluorofolin to inhibit P. aeruginosa DHFR in vivo, metabolomics were performed. As a positive control for DHFR inhibition, we turned to TMP.
# Overnight P. aeruginosa PA14 cultures were diluted 1:150 in Gutnick Minimal Media and grown to early-mid exponential phase (OD600=0.4-0.6).
# LC-MS analysis of metabolites was performed on Orbitrap Exploris 240 mass spectrometer coupled with hydrophilic interaction liquid chromatography (HILIC)^64. […] Flow rate was 0.15 mL/min, and column temperature was set at 25° C. […] The orbitrap resolution was 180,000 at m/z of 200. The maximum injection time was 200 ms, and the automatic gain control (AGC) target was 1000%. Raw mass spectrometry data were converted to mzXML format by MSConvert (ProteoWizard). Pick-peaking was done on El Maven (v0.8.0, Elucidata).
# P. aeruginosa PA14 = experiment: MIC in LB Broth; assay type: cell-based; conditions: Pseudomonas aeruginosa; P. aeruginosa PA14, compound alone
# Experimental: The minimum inhibitory concentration is defined as the lowest concentration of antibiotic at which no visible growth was detected after 16 hours at 37° C. Overnight cultures were diluted 1:150 in LB Broth and added to a 96-well plate. Antibiotics were serially diluted 1:2 and added to columns of the 96-well plate and grown at 37° C. with continuous shaking. Cell growth was measured by optical density (OD600). MIC assays were performed in either BioTek Synergy HT (Winooski, VT) or Tecan InfiniteM200 Pro (Männedorf, CH) microplate readers.
SMILES,resistance of nfxB T39P mutants [1],change of MIC in efflux pump mutants [2],abundance of AICAR and dUMP [3],MIC (P. aeruginosa PA14)
O=C(O)c1cn(C2CC2)c2cc(N3CCNCC3)c(F)cc2c1=O [ciprofloxacin],cross-resistant,,,
"COc1cc(Cc2cnc(N)nc2N)cc(OC)c1OC [trimethoprim, reference compound]",,large reductions in MIC,significant upregulation,125 µg/mL
